“And” between values parts separate entries of the source, which are not always exact repeats. Identical values can stand only once. Like-named read-outs stand apart in the source and are kept apart here.
Assays:
[1] = Pharmacokinetics after single oral administration of the SaTSS standardized fraction (plasma, HPLC, PKSolver); assay type: in vivo, ICR mice
Procedure: Analyses of HPLC were carried out in a Waters system (2695 Separation module) coupled to a diode array detector (2996) with a 190–600-nm detection range and operated by the Manager Millennium software system (Empower 1; Waters Corporation, Mexico City, Mexico). Separations were performed in a Spherisorb-ODS RP-18 column (250 × 4.6 mm, 5 µm; Waters Corporation, Mexico) employing a constant temperature of 25 °C during the analyses. Samples (20 µL) were eluted at a 1.0 mL/min flow rate with a gradient of mobile phases of (A) high-purity H2O with trifluoroacetic acid to 0.5% v/v (TFA, Sigma-Aldrich, Mexico City, Mexico) and (B) high purity CH3CN, and compounds were detected by monitoring absorbance for tomentin and scopoletin at λ = 343 nm and for sphaeralcic acid at λ = 357 nm. The mobile phase was started with water (100%) and was maintained for 1 min, then solvent B was gradually incorporated at 5% (at 2 min), at 30% (at 4 min), and at 50% (at 16 min). During the next 4 min, solvent B was increased to 100%, and this proportion was maintained for 5 min. Finally, the following 3 min were utilized to return the mobile phase to the initial condition. […] Identification of scopoletin and tomentin as well as sphaeralcic acid was performed by comparing their retention times (tomentin—11.288 min, scopoletin—11.349 min, coumarin mixure—11.457 min, and sphaeralcic acid—23.319 min) and absorbance spectra.
The mice were previously anesthetized with sodium pentobarbital (PiSA Agropecuaria), then retro-orbital sinus blood was obtained using heparinized capillaries and distributed to heparinized tubes, and tubes were centrifuged at 3500 g for 7 min. The plasma obtained was transferred to new tubes and stored at −4 °C until use.
Plasma samples were extracted with CH3CN and TFA (w/v) 20% (1:1), then vials were centrifuged at 14,000 g for 10 min and the supernatant was transferred to another vial and left to dry at room temperature. The precipitate was resuspended with 1 mL of high-purity methanol (Merk, México) and filtered through Teflon membrane (13 mm, 0.45 µm, Life Science). Each filtered sample was injected into the HPLC equipment, and the concentrations of tomentin and scopoletin at λ = 343 nm and of sphaeralcic acid at λ = 357 nm were obtained by comparison with pre-built calibration curves.
To evaluate the suitability of the assay for the pharmacokinetic studies, 400 mg/kg of the active SaTSS fraction standardized in a mixture of tomentin and scopoletin (7.1 mg/400 mg), and sphaeralcic acid (34.6 mg/400 mg) was administered orally or intravenously to the mice. The dose of SaTSS fraction was chosen based on previous research of active compounds, as the median efective dose of each compound and detectable concentrations of them in the fraction. For oral pharmacokinetics, ten animals were used in each group at different times (0, 1.3, 3.3, 5, 10, 20, 40, 60, 80, 120, and 240 min). For intravenous pharmacokinetics, three animals were used in each group at different times (2, 4, 6, 8, 10, 15, 20, 30, and 60 min) Subsequently, the mice were anesthetized, retro-orbital sinus blood was obtained, plasma samples were extracted with CH3CN and TFA (w/v) 20% (1:1), and the extracts were analyzed by HPLC for coumarin (tomentin and scopoletin) and sphaeralcic acid quantification. Pharmacokinetic calculations were performed using the observed data. All data were subsequently processed using the PKSolver add-in program for Microsoft Excel written in Visual Basic for Applications. All values obtained were expressed in mean ± Standard Deviation (SD). For the pharmacokinetic assay, the selection was made either from a one-compartment or from a two-compartment model, with the use of both the Akaike Information Criterion (AIC) and the Schwarz Criterion (SC). […]

[2] = Stability of the active compounds in mouse plasma under handling and storage conditions; details: mice plasma
Procedure: The investigation presented here expected manipulation conditions during all of the sample storage and process periods, which included the stability data from the freeze/defrost, bench-top, autosampler, and long-term stability tests. For all stability studies, fresh QC samples were evaluated by using a freshly prepared standard curve for the measurements. The analyzed conditions were 0, 8, and 24 h at room temperature, 8 h at 4 °C, and 30 days at −70 °C. The concentrations obtained from all of the stability studies were compared with the fresh QC samples, and the percentage of concentration deviation was calculated.

[3] = oral 400 mg/kg SaTSS fraction, two-compartment model
[4] = oral 400 mg/kg SaTSS fraction, two-compartment model, 400 mg/kg
[5] = oral 400 mg/kg SaTSS fraction, two-compartment model, listed as Sphaeralcic Acid, 400 mg/kg
[6] = oral 400 mg/kg SaTSS fraction, two-compartment model, listed as sphaeralcic acid, 400 mg/kg
[7] = Autosampler (4 °C, 8 h), nominal 2.5 μg/mL
[8] = Autosampler (4 °C, 8 h), nominal 5 μg/mL
[9] = Autosampler (4 °C, 8 h), nominal 10 μg/mL
[10] = Long-term (−70 °C, 1 month), nominal 2.5 μg/mL
[11] = Long-term (−70 °C, 1 month), nominal 5 μg/mL
[12] = Long-term (−70 °C, 1 month), nominal 10 μg/mL
[13] = room temperature, 0 h, nominal 2.5 μg/mL
[14] = room temperature, 0 h, nominal 5 μg/mL
[15] = room temperature, 0 h, nominal 10 μg/mL
[16] = room temperature, 8 h, nominal 2.5 μg/mL
[17] = room temperature, 8 h, nominal 5 μg/mL
[18] = room temperature, 8 h, nominal 10 μg/mL
[19] = room temperature, 24 h, nominal 2.5 μg/mL
[20] = room temperature, 24 h, nominal 5 μg/mL
[21] = room temperature, 24 h, nominal 10 μg/mL

AUC(0-inf) ([1]; ICR, mouse, plasma, po, 400 mg/kg, oral 400 mg/kg SaTSS fraction, two-compartment model): 3470 ng·h/mL
AUC(0-t) ([1]; ICR, mouse, plasma, po, 400 mg/kg, oral 400 mg/kg SaTSS fraction, two-compartment model, read-out: AUC 0→240 (converted)): 2900 ng·h/mL
CL/F ([1]; ICR, mouse, plasma, po, 400 mg/kg, oral 400 mg/kg SaTSS fraction, two-compartment model, read-out: CL/F (apparent clearance related to bioavailability)): 170 mL/min/kg
Cmax ([1]; ICR, mouse, plasma, po, 400 mg/kg, oral 400 mg/kg SaTSS fraction, two-compartment model, read-out: Cmax): 10400 ng/mL
MRT ([1]; ICR, mouse, plasma, po, 400 mg/kg, oral 400 mg/kg SaTSS fraction, two-compartment model, read-out: MRT (mean residence time) (converted)): 40.2 min
Tmax ([1]; ICR, mouse, plasma, po, 400 mg/kg, oral 400 mg/kg SaTSS fraction, two-compartment model, read-out: Tmax (converted)): 4 min
Vd/F ([1]; ICR, mouse, plasma, po, 400 mg/kg, oral 400 mg/kg SaTSS fraction, two-compartment model, read-out: V/F (apparent volume of distribution related to bioavailability)): 1.31 L/kg
k el ([1]; ICR, mouse, plasma, po, 400 mg/kg, oral 400 mg/kg SaTSS fraction, two-compartment model, read-out: k10 (apparent first-order elimination rate constant from the central compartment) (converted)): 0.00217 s⁻¹
half-life ([1]; ICR, mouse, plasma, po, 400 mg/kg, oral 400 mg/kg SaTSS fraction, two-compartment model, read-out: t1/2β): 44.6 min
concentration at 1.3 min ([1]; ICR, mouse, plasma, oral single dose 400 mg/kg SaTSS fraction, 1.3 min, n = 10): 5040 ± 50 ng/mL
concentration at 3.3 min ([1]; ICR, mouse, plasma, oral single dose 400 mg/kg SaTSS fraction, 3.3 min, n = 10): 9920 ± 410 ng/mL
concentration at 5 min ([1]; ICR, mouse, plasma, oral single dose 400 mg/kg SaTSS fraction, 5 min, n = 10): 12800 ± 540 ng/mL
concentration at 10 min ([1]; ICR, mouse, plasma, oral single dose 400 mg/kg SaTSS fraction, 10 min, n = 10): 4030 ± 110 ng/mL
concentration at 20 min ([1]; ICR, mouse, plasma, oral single dose 400 mg/kg SaTSS fraction, 20 min, n = 10): 2770 ± 80 ng/mL
concentration at 40 min ([1]; ICR, mouse, plasma, oral single dose 400 mg/kg SaTSS fraction, 40 min, n = 10): 1380 ± 120 ng/mL
concentration at 80 min ([1]; ICR, mouse, plasma, oral single dose 400 mg/kg SaTSS fraction, 80 min, n = 10): 170 ± 30 ng/mL
concentration at 120 min ([1]; ICR, mouse, plasma, oral single dose 400 mg/kg SaTSS fraction, 120 min, n = 10): 0 ng/mL
concentration at 240 min ([1]; ICR, mouse, plasma, oral single dose 400 mg/kg SaTSS fraction, 240 min, n = 10): 0 ng/mL
products derived from biotransformation in plasma ([1]; after oral administration of SaTSS fraction): not detected
time at which the plasma concentration fell below LOQ ([1]; oral 400 mg/kg SaTSS fraction): 80 min
time of maximum (highest) observed plasma concentration ([1]; oral 400 mg/kg SaTSS fraction, observed sampling time): five
B (plasma concentration, peripheral compartment) [1, 3]: 1.845 µg/mL
k12 (transfer rate constant central to peripheral compartment) [1, 3]: 0.114 min⁻¹
k21 (transfer rate constant peripheral to central compartment) [1, 3]: 0.031 min⁻¹
α [1, 3]: 0.256 min⁻¹
β [1, 3]: 0.015 min⁻¹
Cmax [1, 4]: 10450 ng/mL
MRT (mean residence time) [1, 4]: 40.17 min
A (plasma concentration, central compartment) [1, 5]: 413.646 µg/mL
AUC 0→240 [1, 5]: 173.724 µg·min/mL
AUC 0→∞ [1, 5]: 208.058 µg·min/mL
CL/F (apparent clearance related to bioavailability) [1, 5]: 0.166 (mg)/(µg/mL)/min
Cmax [1, 5]: 10447 ng/mL
MRT (mean residence time) [1, 5]: 40.167 min
Tmax [1, 5]: 4.004 min
V/F (apparent volume of distribution related to bioavailability) [1, 5]: 1.309 (mg)/(µg/mL)
k10 (apparent first-order elimination rate constant from the central compartment) [1, 5]: 0.127 min⁻¹
ka (apparent first-order absorption rate constant) [1, 5]: 0.273 min⁻¹
t1/2ka (absorption half time) [1, 5]: 2.537 min
t1/2α [1, 5]: 2.698 min
t1/2β [1, 5]: 44.653 min
A (plasma concentration, central compartment) [1, 6]: 413 µg/mL
ka (apparent first-order absorption rate constant) [1, 6]: 0.27 min⁻¹ and 0.273 min⁻¹
t1/2ka (absorption half time) [1, 6]: 2.53 min
t1/2α [1, 6]: 2.70 min
Accuracy Bias [2, 7]: −3.89%
Observed Concentration [2, 7]: 2.40 ± 0.04 µg/mL
Accuracy Bias [2, 8]: −1.69%
Observed Concentration [2, 8]: 4.92 ± 0.08 µg/mL
Accuracy Bias [2, 9]: −3.34%
Observed Concentration [2, 9]: 9.67 ± 0.12 µg/mL
Accuracy Bias [2, 10]: −4.82%
Observed Concentration [2, 10]: 2.38 ± 0.08 µg/mL
Accuracy Bias [2, 11]: −2.61%
Observed Concentration [2, 11]: 4.87 ± 0.10 µg/mL
Accuracy Bias [2, 12]: −3.50%
Observed Concentration [2, 12]: 9.65 ± 0.08 µg/mL
Accuracy Bias [2, 13]: −0.60%
Observed Concentration [2, 13]: 2.48 ± 0.03 µg/mL
Accuracy Bias [2, 14]: 0.17%
Observed Concentration [2, 14]: 5.01 ± 0.06 µg/mL
Accuracy Bias [2, 15]: −0.49%
Observed Concentration [2, 15]: 9.95 ± 0.11 µg/mL
Accuracy Bias [2, 16]: −9.98%
Observed Concentration [2, 16]: 2.25 ± 0.13 µg/mL
Accuracy Bias [2, 17]: −8.10%
Observed Concentration [2, 17]: 4.59 ± 0.06 µg/mL
Accuracy Bias [2, 18]: −6.48%
Observed Concentration [2, 18]: 9.35 ± 0.11 µg/mL
Accuracy Bias [2, 19]: −9.03%
Observed Concentration [2, 19]: 2.27 ± 0.11 µg/mL
Accuracy Bias [2, 20]: −8.73%
Observed Concentration [2, 20]: 4.56 ± 0.10 µg/mL
Accuracy Bias [2, 21]: −7.37%
Observed Concentration [2, 21]: 9.26 ± 0.07 µg/mL
Structure (SMILES): COc1c(C)cc2c(C(C)C)cc(C(=O)O)c(O)c2c1O [Sphaeralcic acid, sphaeralcic acid]

From article PMC8308911, “Pharmacokinetic Study of Anti-osteoarthritic Compounds of a Standardized Fraction from Sphaeralcea Angustifolia” (Pharmaceuticals, 2021)
